Legend:
[1] = H2O2 scavenging capacity test (Amplex red/HRP); settings: 10 min incubation with H2O2 at RT
Experimental: To determine the H2O2 scavenging capacity of the test compound, H2O2 concentration was measured using the modified Amplex red/horseradish peroxidase (HRP) detection method as described previously. Briefly, a H2O2 solution was incubated with the test compound for 10 min at room temperature (RT), and then the reaction solution containing 20 mM Amplex red and 200 U/mL HRP was added. The absorbance was measured at 570 nm using a microplate reader. The H2O2 scavenging capacities were compared to a blank negative control and to the known H2O2 scavenger epigallocatechin gallate (EGCG) as a positive control.

[2] = test system: A53T mutant α-synuclein-overexpressing PD model rats; assay: A53T mutant α-synuclein rat model: stepping test and cylinder test; format: in vivo; settings: 10 mg/kg/day for 15 days
Experimental: Throughout the study, confounders were not controlled.
Motor dysfunction of A53T α-synuclein model rats was tested using the forelimb-use asymmetry test (cylinder test). Briefly, animals were placed in a transparent Plexiglas cylinder (20 cm in diameter and 30 cm in height) for 2 min to assess the frequency of ipsilesional and contralesional forelimb usage against the cylinder wall for supporting an upright body posture. The test score was calculated as the ratio of ipsilateral usage frequency to total ipsilateral plus contralateral usage frequency.

[3] = Oral toxicity studies in cynomolgus monkeys (N217019, G217013, G218027); format: in vivo, cynomolgus monkey (Macaca fascicularis); settings: cynomolgus monkey, in vivo; cynomolgus monkeys, both sexes, 4-week repeated oral dosing; read-out: No Observed Adverse Effect Level (NOAEL)
Experimental: (§1) All non-human primate studies were conducted in the Good Laboratory Practice (GLP)-level laboratory of the Korea Institute of Toxicology (KIT, Jeollabuk-do, Korea) and approved by the KIT Institutional Animal Care and Use Committee. Cynomolgus monkeys (Macaca fascicularis) were obtained from the Nafovanny captive-breeding primate facility (Dong Nai Province, Vietnam) and housed individually in stainless cages (543 W × 715L × 818H in mm) during acclimation, pre-treatment, and dosing periods. All animals were at least 24 months old. The environment of the animal room was automatically controlled according to the Standard Operating Procedures of KIT (temperature: 20–29°C, relative humidity: 30–70%, light cycle: 12 h at 300–700 Lux, ventilation: 10–20 times/h, air pressure: negative). Males and females were assigned to treatment groups in a stratified manner using the Pristima System based on most recent body weight. Clinical signs, including mortality, moribundity, general appearance, and behavioral changes, were recorded with date, time, and duration. Body weight was measured prior to the first KDS2010 dose. For oral administration, KDS2010 was dissolved in water. In total, 42 monkeys were administered KDS2010 and ultimately sacrificed for autopsy. The four studies conducted on cynomolgus monkeys are summarized in Table 1 and described in greater detail below.
(§2) In the single-dose escalation study (N118029), each male and female monkey was administered oral KDS2010 at increasing doses of 25, 50, and 100 mg/kg/day once a week. Mortality and general symptoms were observed during the trial period. Body weight was also measured. Blood was collected for hematology, coagulation, and clinical chemistry tests pre-dose (0) and 8, 15, and 22 days post-dose. After administration of 100 mg/kg/day on day 22, an autopsy was performed to observe individual macroscopic findings.
(§3) In the repeated 2-week oral administration toxicity study (G217013) for 4-week dose range finding (DRF), monkeys were assigned to 4 groups of one male and one female. Each group was orally administered KDS2010 at 0, 25, 50, or 100 mg/kg/day once a day for 2 weeks. During the test period, general symptoms were monitored, weight and feed intake measured, and ophthalmological tests performed. Clinical pathological tests (hematology, coagulation, blood biochemistry, and urine tests) were also conducted. All animals were autopsied, during which individual macroscopic findings were recorded, organ weights measured, and samples obtained for histopathology.
(§4) In the repeated 4-week oral administration toxicity with 2-week recovery and toxicokinetic test (G218027), monkeys were assigned to 4 groups of 3 males and 3 females. Each group was orally administered KDS2010 at 0, 10, 20, or 40 mg/kg/day once a day for 4 weeks. Toxicity tests were conducted as described for study G217013. For toxicokinetic measurements, blood samples were collected pre-dose (time 0) and at 1, 2, 4, 6, 8, 10, and 24 h after oral administration on the first day (day 1) and the last day (week 4; day 28) of dosing.

[4] = test system: cynomolgus monkeys; assay: as above; format: in vivo, cynomolgus monkey (Macaca fascicularis)
Experimental: as §1, §2, §3, §4

[5] = biological target: T1, human recombinant MAO-A (hMAO-A) (Homo sapiens, UniProt P21397); settings: ref Park, JH. et al. Science Advances. 5(3), eaav0136 (2019), read-out: Inhibition (IC50) MAO-A; cited from earlier work
T1 construct: purchased Sigma Aldrich
T1 sequence (P21397 1-527): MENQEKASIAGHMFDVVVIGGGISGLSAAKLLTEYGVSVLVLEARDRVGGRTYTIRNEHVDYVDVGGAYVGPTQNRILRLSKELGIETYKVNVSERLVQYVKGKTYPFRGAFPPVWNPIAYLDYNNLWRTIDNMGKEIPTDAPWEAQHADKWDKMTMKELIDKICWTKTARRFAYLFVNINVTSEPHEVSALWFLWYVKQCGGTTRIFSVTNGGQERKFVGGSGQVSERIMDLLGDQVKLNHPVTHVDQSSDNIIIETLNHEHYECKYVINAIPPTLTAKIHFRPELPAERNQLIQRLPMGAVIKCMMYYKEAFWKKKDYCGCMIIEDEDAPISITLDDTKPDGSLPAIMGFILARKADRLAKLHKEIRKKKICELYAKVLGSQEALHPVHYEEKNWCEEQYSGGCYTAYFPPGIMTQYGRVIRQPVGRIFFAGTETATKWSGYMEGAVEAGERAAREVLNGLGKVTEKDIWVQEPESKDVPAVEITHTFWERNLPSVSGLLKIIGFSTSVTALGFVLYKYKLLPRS

[6] = test system: post-stroke recovery; design: method as in PMID 32640227; settings: long-term treatment accompanied by rehabilitation training; cited from earlier work
[7] = test system: 6-OHDA model rats; assay: 6-OHDA rat model: stepping test, rotarod test, TH; settings: 6-OHDA rats
Experimental: (§5) Group allocation and outcome assessment, but not the conduct of experiments and data analysis, were performed in a blinded manner. Throughout the study, confounders were not controlled. An acclimation period of 7 days was allowed for animals to stabilize in a new environment before model induction. […] Treatment drugs were dissolved in 100 μL of water and total dose (in mg) was calculated according to individual body weight (in kg). […] An experiment was halted if body weight decreased by 20% or more after MPTP or 6-hydroxydopamine (6-OHDA) treatment.
Finally, the 6-OHDA model was prepared as previously described [21]. Under general anesthesia, all rats received unilateral injections of 8 μg 6-OHDA (Sigma Aldrich) in 4 μL saline/0.1% ascorbic acid into the right medial forebrain bundle (AP − 2.2 mm and L + 1.5 mm relative to the bregma, V − 8.0 mm from the dura) [19], with the tooth bar set at + 4.5 mm.
Motor deficits of 6-OHDA and A53T mutant α-synuclein model rats were assessed as previously described with slight modifications [27]. Briefly, both hind limbs and one forelimb were firmly fixed in the two hands of the experimenter, and the rat was lowered over a treadmill moving at rate of 18 cm/s such that the body remained stationary while the free forelimb was allowed to spontaneously touch the moving treadmill track for 10 s. All experimental sessions were video recorded to count the number of adjusting steps taken in the backward direction. The number of adjusting steps was averaged across four trials in each session.
In addition, impaired motor coordination of 6-OHDA model rats was examined using the rotarod test as previously described with slight modifications [28]. […] Before the first rotarod test, all rats were pre-trained until riding time reached 60 s at 10 rpm (B.S Technolab, Seoul, Korea). Each session consisted of two trials, and riding time was averaged to obtain pre-6-OHDA, 0d, 7d, and 15d results.

[8] = test system: MPTP-induced PD mouse model; assay: MPTP mouse model: TH (DAB) and Nissl staining of SNpc and striatum; settings: MPTP mice; for TH optical density in the striatum / TH-positive cell number in the SNpc: vs MPTP plus vehicle
Experimental: as §5
The MPTP model was established using the acute regimen of four intraperitoneal (i.p.) injections of MPTP-HCl (M0896, Sigma Aldrich, 2 mg/mL in saline, 20 mg/kg for one injection) at 2-h intervals. All MPTP use and safety precautions were strictly followed as described [18].
Coronal sections for striatum and SNpc were prepared at 30-μm thickness and immunostained using a DAB staining kit (TL-060-QHD, Thermo, MA, USA). […] After washing in PBS 3 times, sections were incubated in Primary Antibody Amplifier Quanto (TA-060-QPB, Thermo) for 5 min, washed again in PBS, incubated in HRP Polymer Quanto for 1 h, washed 4 times in PBS, and dipped for 30 s in a 1:10 mixture of DAB + chromogen and DAB + substrate buffer (K3468, Dako, Denmark). Finally, sections were washed, immersed in mounting medium, and dried.
Every 6th section including the SN was stained with anti-TH and the number of TH-positive neurons counted under low magnification (× 10) from the rostral tip of the SNpc to the caudal end of the substantia nigra pars reticulate (SNpr). […] The total number of neurons per section was estimated according to the optical fractionator formula. The total number of SNpc neurons in a hemisphere was then obtained by multiplying the number counted using Stereo Investigator 11 by the slice interval (six).
Other 30-μm-thick coronal sections from the SNpc were Nissl stained to assess viable cell number. Briefly, slices were stained with 0.1% cresyl violet solution for 3 min, rinsed with distilled water, and placed in a chamber filled with 70% ethanol for 1 min. […] A series of bright field images were obtained using an Olympus microscope. The slices were classified according to AP coordinates and Nissl-positive neurons counted using the counting tool of ImageJ (NIH, MD, USA).

C[C@H](NCc1ccc(-c2ccc(C(F)(F)F)cc2)cc1)C(N)=O [Compound 18j]
H2O2 scavenging effect [1]: did not show any H2O2 scavenging effect | cylinder test: asymmetric usage of forelimbs [2]: alleviated | stepping test: impaired stepping behavior of the contralateral forepaw [2]: significantly alleviated | NOAEL at 4 weeks [3]: 40 mg/kg/day | maximum dose determined in 2-week DRF study (G217013) ([4]; cynomolgus monkeys, 0, 25, 50, 100 mg/kg/day p.o. for 2 weeks): 50 mg/kg/day | adverse effects in toxicity examinations ([4]; cynomolgus monkeys, 10, 20, 40 mg/kg/day p.o. for 4 weeks): no adverse effects were observed | findings in single-dose escalation toxicity study (N217019) ([4]; cynomolgus monkeys, 25, 50 and 100 mg/kg p.o.): no general symptoms, clinical pathological, or gross organ pathology | changes in body weight ([4]; cynomolgus monkeys, male and female, 10, 20, 40 mg/kg/day p.o. for 4 weeks): no significant changes | IC50 [5]: > 100 µM | post-stroke recovery [6]: dramatically improved | stepping test: stepping behavior deficit of the contralateral forepaw ([7]; 10 mg/kg/day for 15 days starting 17 days post-6-OHDA): partially but significantly improved | rotarod test: reduction in riding time (latency to fall) ([7]; 15 days' treatment starting 17 days after 6-OHDA): partially reversed | nigrostriatal TH loss ([7]; data not shown): not reversed | MPTP-induced reduction in Nissl-positive neurons in SNpc ([8]; post-treatment): but not post-treatment | TH optical density in the striatum ([8]; post-treatment): significantly increased | TH-positive cell number in the SNpc ([8]; post-treatment): significantly increased | MPTP-induced reduction in Nissl-positive neurons in SNpc ([8]; pre-treatment): partially prevented | TH optical density in the striatum ([8]; pre-treatment): significantly increased | TH-positive cell number in the SNpc ([8]; pre-treatment): significantly increased

Source: article PMC8608967, “KDS2010, a Newly Developed Reversible MAO-B Inhibitor, as an Effective Therapeutic Candidate for Parkinson’s Disease” (Neurotherapeutics, 2021)
